The values that follow come from publication PMC11306511, “Combining VPS34 inhibitors with STING agonists enhances type I interferon signaling and anti‐tumor efficacy” (Molecular Oncology, 2024).

Molecules are shown by their SMILES. Values after ≈ are worked out from the molar mass of the structure shown. Where two headings read alike, the source gives them in different places.

One data set relates to B16-F10 tumors. As to the kind of experiment: Tumor growth inhibition study, B16-F10 tumor-bearing mice. The class given is in vivo, mouse. Particulars: B16-F10 in C57BL/6 mice; SB02024 20 mg·kg^−1 oral daily day 7-16; ADU-S100 10 μg intratumoral days 9, 11, 13, 15. The text has this:
Study protocols were approved by the Institutional Animal Care and Use Committee of CrownBio in China (AN‐1903‐05‐313) or the LIH's animal welfare committee in Luxembourg (agreement LECR‐2018‐12). Mice were handled according to European Union guidelines, adhering to the principles of replacement, reduction, and refinement (3Rs). Animals were housed in appropriate accommodations conducive to their well‐being, with provisions for housing, feeding, and environmental enrichment to meet their physical and behavioral needs. Highly skilled personnel were involved in carrying out procedures related to the animal experiments to ensure proper care and handling. Female 6 to 8‐week‐old BALB/c (supplied by Shanghai Lingchang Biotechnology Co., Shanghai, China; n = 14) or C57BL/6 mice (supplied by Janvier Labs, Le Genest‐Saint‐Isle, France; n = 40) were injected into the right flank with 1 × 10^6 Renca or 0.2 × 10^6 B16‐F10 cells, respectively, resuspended in 100 μL PBS (day 0). When tumors were palpable (day 9 for Renca, day 7 for B16‐F10 tumors), mice were randomly assigned into two groups for the Renca model with n = 6 (vehicle) and n = 8 (SB02024) or four groups for the B16‐F10 model with n = 10. […] Tumor growth was measured using a caliper every other day and estimated as follows: volume (cm^3) = (width)^2 × length × 0.5.

The next data set in a line: Shake flask LogD. The data set is classed as physicochemical. As for the experimental part:
(§1) Experiments were conducted at Aragen Life Sciences Ltd. (Hyderabad, India) according to internal standard procedures.

In another data set the test system is CCL5 and CXCL10. As to the kind of experiment: Plasma CCL5/CXCL10 in Renca tumor-bearing mice (Mesoscale Discovery). The class given is in vivo, mouse. The following applies: Renca tumor-bearing BALB/c mice, 20 mg·kg^−1 oral daily, vs vehicle. The text has this: Study protocols were approved by the Institutional Animal Care and Use Committee of CrownBio in China (AN‐1903‐05‐313) or the LIH's animal welfare committee in Luxembourg (agreement LECR‐2018‐12). Mice were handled according to European Union guidelines, adhering to the principles of replacement, reduction, and refinement (3Rs). Animals were housed in appropriate accommodations conducive to their well‐being, with provisions for housing, feeding, and environmental enrichment to meet their physical and behavioral needs. Highly skilled personnel were involved in carrying out procedures related to the animal experiments to ensure proper care and handling. […] Tumor growth was measured using a caliper every other day and estimated as follows: volume (cm^3) = (width)^2 × length × 0.5.
Cell culture medium was centrifuged at 300 g for 10 min at 4 °C and supernatant stored at −80 °C. […] Cytokine levels were quantified using Mesoscale Discovery (MSD) assays: human CCL5 (#F21ZN), CXCL10 (#K151UFK), IFNβ (#K151VIK); mouse CCL5 (#K152A2K) and CXCL10 (#K152UFK). Low concentrations of human IFNβ were determined using High‐Sensitivity IFNβ ELISA (#41415‐1; PBL Assay Science, Piscataway, NJ, USA). CCL5/CXCL10 levels in some experiments were quantified using R&D Systems (Minneapolis, MN, USA) ELISAs: human CCL5 (#DY278) or CXCL10 (#DY266); mouse CCL5 (#DY478).

In another data set the test system is B16-F10 cells. As to the kind of experiment: IFN/cytokine gene expression (qRT-PCR) and secretion (MSD) in B16-F10 cells. Particulars: 2 μM, 24 h, vs DMSO. The data set is classed as cell-based, murine. As for the experimental part: (§2) RNA was isolated using the PureLink kit (#12183018A; Thermo Fisher) and DNA‐binding columns (Rneasy plus kit, #74134; Qiagen) and/or Dnase treatment (#12185010; Thermo Fisher). After quantification using NanoDrop, 50 ng·μL^−1 RNA was used for cDNA synthesis with SuperScript IV VILO Master Mix (#11756050; Thermo Fisher). Quantitative RT‐PCR was run with diluted cDNA (1 : 25 or 1 : 12.5), PowerUp SYBR Green Master Mix (#A25741; Thermo Fisher), and 200 nM primers (see Table S3) on a CFX Connect RT‐PCR system (BioRad, Hercules, CA, USA). Data were analyzed using the ΔΔCT method.
(§3) Cell culture medium was centrifuged at 300 g for 10 min at 4 °C and supernatant stored at −80 °C. Mouse blood was collected at termination in K2‐EDTA tubes on ice, centrifuged at 1270 g for 10 min at 4 °C, and plasma was stored at −80 °C. Cytokine levels were quantified using Mesoscale Discovery (MSD) assays: human CCL5 (#F21ZN), CXCL10 (#K151UFK), IFNβ (#K151VIK); mouse CCL5 (#K152A2K) and CXCL10 (#K152UFK). Low concentrations of human IFNβ were determined using High‐Sensitivity IFNβ ELISA (#41415‐1; PBL Assay Science, Piscataway, NJ, USA). CCL5/CXCL10 levels in some experiments were quantified using R&D Systems (Minneapolis, MN, USA) ELISAs: human CCL5 (#DY278) or CXCL10 (#DY266); mouse CCL5 (#DY478).

Data set [1] is described as follows: Solubility (PBS, FaSSIF, SGF). The class given is physicochemical. The method, then:
as §1

A short description of the next data set: pKa. The class given is physicochemical. The following applies: read-out: pKa (weakly basic). The method, then: as §1
Another data set relates to A-498 cells. As to the kind of experiment: IFN/cytokine gene expression (qRT-PCR) and secretion (MSD) in A-498 cells. The class given is cell-based, human. The following applies: 2 μM, 24 h, vs DMSO. As for the experimental part:
as §2, §3
In general terms: Quantitative PCR measures a nucleic acid by following its amplification.

A further data set has as its target CYP3A4 (Homo sapiens, UniProt P08684). As to the kind of experiment: CYP inhibition. The class given is in vitro ADME. As for the experimental part:
as §1

In a further data set the test system is Me30966 cells. As to the kind of experiment: Gene expression (qRT-PCR) in Me30966 cells. The class given is cell-based, human. Particulars: 2 μM, 24 h, vs DMSO.
For a further data set, the target named is T1, PXR (Homo sapiens, UniProt O75469).
T1 sequence (O75469 1-434): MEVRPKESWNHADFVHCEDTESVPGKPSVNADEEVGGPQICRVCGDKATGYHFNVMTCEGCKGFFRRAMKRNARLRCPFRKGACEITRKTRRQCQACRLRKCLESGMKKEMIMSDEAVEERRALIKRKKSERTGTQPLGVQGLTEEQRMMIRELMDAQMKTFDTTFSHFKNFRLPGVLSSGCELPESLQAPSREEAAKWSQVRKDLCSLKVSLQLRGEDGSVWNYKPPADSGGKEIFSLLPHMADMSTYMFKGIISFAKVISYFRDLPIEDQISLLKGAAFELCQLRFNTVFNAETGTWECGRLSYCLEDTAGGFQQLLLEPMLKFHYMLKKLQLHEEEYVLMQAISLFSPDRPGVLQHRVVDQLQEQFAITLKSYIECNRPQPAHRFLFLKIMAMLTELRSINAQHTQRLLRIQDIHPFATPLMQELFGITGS
As to the kind of experiment: CYP3A4 induction, PXR. The data set is classed as in vitro ADME. As for the experimental part:
as §1

The next data set can be described thus: In vivo mouse PK. The method, then:
as §1

Data set [2] in a line: Plasma protein binding, mouse. The class given is in vitro ADME. Particulars: unbound/free fraction, read-out: PPB (% unbound) mouse. As for the experimental part:
as §1

Chain of CYP3A4 (P08684 whole entry): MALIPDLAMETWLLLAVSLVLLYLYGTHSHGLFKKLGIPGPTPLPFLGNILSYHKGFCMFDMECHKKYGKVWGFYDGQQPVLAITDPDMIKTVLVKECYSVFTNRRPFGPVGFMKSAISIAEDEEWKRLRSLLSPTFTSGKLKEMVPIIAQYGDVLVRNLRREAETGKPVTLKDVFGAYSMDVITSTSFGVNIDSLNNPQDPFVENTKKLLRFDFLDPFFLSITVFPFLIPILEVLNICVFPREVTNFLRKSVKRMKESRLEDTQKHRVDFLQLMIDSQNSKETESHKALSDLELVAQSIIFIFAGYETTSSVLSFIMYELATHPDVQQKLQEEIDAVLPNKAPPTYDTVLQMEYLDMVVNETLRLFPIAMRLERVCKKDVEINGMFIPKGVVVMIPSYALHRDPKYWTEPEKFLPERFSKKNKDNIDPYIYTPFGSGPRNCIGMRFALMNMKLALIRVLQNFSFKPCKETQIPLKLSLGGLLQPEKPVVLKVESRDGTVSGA
Experimental for Me30966 cells: (A) IFNB1 gene expression quantified by qRT-PCR after 24h treatment with DMSO control or 2 µM of VPS34 inhibitor
(=VPS34i, SB02024 or SAR405) in Me30966 cells.

On to `C[C@@H]1COCCN1c1cc(N2CCCC[C@@H]2C(F)(F)F)[nH]c(=O)c1` [SB02024], for which the “% TGI (percent tumor growth inhibition compared to vehicle control)” value with B16-F10 tumors stood at 27%. For the same compound, in the data set “Shake flask LogD”, the logD – broadly, the decadic logarithm of the distribution of all forms, ionised or not, between an organic phase and buffer at a given pH – came to 1.8. The “CCL5 and CXCL10 in blood plasma” value in the data set on CCL5 and CXCL10 is recorded as “significant increase”. For the same compound, the “transcription of IFNB1 and ISGs IRF1, IRF7, IRF9” value with B16-F10 cells and with A-498 cells was “significantly increased” throughout. For the same compound, the “solubility in both gastric and small intestinal pH media (in words)” value in [1] is on record as “excellent”. In addition, the solubility (as a rule, how much of the substance goes into solution per volume) in data set [1] (FaSSIF, pH 6.5, fassif, read-out: Solubility FaSSIF, pH 6.5) is 890 µM (≈ 307 µg/mL); in data set [1] (PBS buffer, pH 7.4, aqueous buffer, read-out: Solubility in PBS buffer, pH 7.4), 175 µM (≈ 60.4 µg/mL); in data set [1] (SGF, pH 1.8, simulated gastric fluid, read-out: Solubility SGF, pH 1.8), 2150 µM (≈ 743 µg/mL). For the same compound, the pKa (as a rule, the pH at which an ionisable group is half protonated) in “pKa” worked out at 2.2. Further, at CYP3A4, the “inhibition of CYP3A (in words)” value was “weak inhibition”. In addition, the inhibition (as a rule, the percentage by which the read-out fell short of the control) at 10 µM on CYP3A4 (human, 10 μM, 3A4, read-out: Highest CYP inhibition (%) @ 10 μM) worked out at 14%. In addition, in the data set with Me30966 cells, the IFNB1 expression result is “significantly increased”. For the same compound, the “induction of CYP3A4 (in words)” value at PXR is given as “no induction”. Moreover, in “In vivo mouse PK” (in vivo mouse PK), the Vd (commonly a proportionality between amount in the body and measured concentration, not a real space) came out at 2.53 L/kg. Further, the clearance (in general, a measure of how efficiently the substance is removed, as volume per time) in “In vivo mouse PK” (in vivo mouse PK) stood at 26 mL/min/kg. For the same compound, the half-life in the data set “In vivo mouse PK” (in vivo mouse PK, read-out: t½ (converted)) is 1.15 h. For the same compound, the “in vitro and in vivo clearance (in words)” value in “In vivo mouse PK” (mouse, in vivo) is listed as “low”. The bioavailability (commonly the share of a dose that reaches the circulation, judged against a reference dose that is usually intravenous) in “In vivo mouse PK” (po, in vivo mouse PK) came to 96%. Besides, the fraction unbound in data set [2] stood at 0.14.
